pIC50: −log10 of the molar value. Counter-ions that a name gives are not always drawn.

For 36 molecules, IC50, tumor growth inhibition and PK in plasma results are on record in patent US20250206717A1, “COMPOUND HAVING ANTI-TUMOR ACTIVITY AND USE THEREOF” (Innovstone Therapeutics Limited, priority 2021, published 2025).

Sequence of PRMT5 (O14744 2-637): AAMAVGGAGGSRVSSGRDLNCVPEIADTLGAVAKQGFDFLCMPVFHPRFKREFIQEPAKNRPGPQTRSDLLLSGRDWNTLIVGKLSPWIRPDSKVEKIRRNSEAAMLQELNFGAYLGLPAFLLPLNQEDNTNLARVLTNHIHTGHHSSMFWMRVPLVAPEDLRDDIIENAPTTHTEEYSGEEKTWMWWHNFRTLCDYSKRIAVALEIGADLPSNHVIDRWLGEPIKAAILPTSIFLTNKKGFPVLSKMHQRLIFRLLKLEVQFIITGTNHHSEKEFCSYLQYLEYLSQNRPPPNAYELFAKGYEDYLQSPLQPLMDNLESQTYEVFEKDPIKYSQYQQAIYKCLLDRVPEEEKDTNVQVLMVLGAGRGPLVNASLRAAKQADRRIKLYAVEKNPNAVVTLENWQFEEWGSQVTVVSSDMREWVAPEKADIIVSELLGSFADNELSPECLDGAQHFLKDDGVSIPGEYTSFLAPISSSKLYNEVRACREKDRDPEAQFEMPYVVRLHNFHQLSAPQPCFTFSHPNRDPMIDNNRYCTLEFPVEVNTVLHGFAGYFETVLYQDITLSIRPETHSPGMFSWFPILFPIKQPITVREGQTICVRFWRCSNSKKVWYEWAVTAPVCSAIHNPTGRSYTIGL
Sequence of PRMT5 (Q9BQA1 2-342 partner): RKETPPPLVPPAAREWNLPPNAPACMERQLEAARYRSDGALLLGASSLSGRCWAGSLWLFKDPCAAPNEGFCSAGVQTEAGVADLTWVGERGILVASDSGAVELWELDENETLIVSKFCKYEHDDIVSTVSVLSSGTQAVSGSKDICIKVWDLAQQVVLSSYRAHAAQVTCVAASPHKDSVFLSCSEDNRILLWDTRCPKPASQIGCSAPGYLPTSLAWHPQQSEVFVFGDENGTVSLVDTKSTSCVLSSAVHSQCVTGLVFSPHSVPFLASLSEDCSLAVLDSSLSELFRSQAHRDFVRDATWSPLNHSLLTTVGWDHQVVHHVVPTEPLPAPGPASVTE

The first data set concerns the target PRMT5 (Homo sapiens (Human), UniProt O14744). Kind of data set: Inhibitory activity against PRMT5 enzyme activity ([3H]-SAM FlashPlate assay). The format is biochemical. The conditions noted are these: PRMT5 5 nM, [3H]-SAM 0.3 μM, polypeptide substrate 100 nM; read-out: measured enzyme inhibitory IC50 value (PRMT5 enzyme activity).
For orientation: pIC50 means the negative decadic logarithm of the IC50, by convention in mol/L. As to `CC(=O)N1CCC(Oc2cc(C(=O)N3CC[C@H](N4CCc5ccccc5C4)[C@@H](O)C3)ncn2)CC1` (relative stereo) [Example 1, trans-1-(4-((6-(4-(3,4-dihydroisoquinoline-2(1H)-yl)-3-hydroxypiperidine-1-carbonyl)pyrimidine-4-yl)oxy)piperidine-1-yl)ethane-1-one], the pIC50 is 7.19.

For the molecule `CC(=O)N1CCC(Nc2cc(C(=O)N3CC[C@@H](N4CCc5ccccc5C4)[C@H](O)C3)nc(C)n2)CC1` [Control Example 2, 1-(4-((6-((3R,4R)-4-(3,4-dihydroisoquinoline-2(1H)-yl)-3-hydroxypiperidine-1-carbonyl)-2-methylpyrimidine-4-yl)amino)piperidine-1-yl)ethanone], the negative logarithm of the IC50 (pIC50) is 7.44.

In the case of `CC(=O)N1CCC(Nc2cc(C(=O)N3CC[C@H](N4CCc5ccccc5C4)[C@@H](O)C3)nc(-c3ccccc3F)n2)CC1` [Example 12], the pIC50 is 7.45.

As for `O=C(c1cc(NC2CCCCC2)nc(-c2ccccc2)n1)N1CC[C@@H](N2CCc3ccccc3C2)[C@H](O)C1` [Example 37], the negative logarithm of the IC50 (pIC50) is 7.00.

For `C=Cc1nc(NC2CCN(C(C)=O)CC2)cc(C(=O)N2CC[C@@H](N3CCc4ccccc4C3)[C@H](O)C2)n1` [Example 46], the pIC50 is 7.54.

For the molecule `CC(=O)N1CCC(Nc2cc(C(=O)N3CC[C@@H](N4CCc5ccccc5C4)[C@H](O)C3)nc(C(=O)N(C)C)n2)CC1` [Example 59], the negative-log IC50 (pIC50) is 6.97.

On to `CC(=O)N1CCC(Nc2nc(C(=O)N3CC[C@@H](N4CCc5ccccc5C4)[C@H](O)C3)nc(-c3ccccc3)n2)CC1` [Example 70], for which the negative-log IC50 (pIC50) is 7.18.

In the case of `CC(=O)N1CCC(Nc2cc(C(=O)N3CC[C@H](N4CCc5ccccc5C4)[C@@H](O)C3)nc(-n3ccnc3)n2)CC1` [Example 73], the negative-log IC50 (pIC50) is 6.96.

As to `O=C(c1ccc(C(F)(F)F)cc1)N1CCC(Nc2cc(C(=O)N3CC[C@@H](N4CCc5ccccc5C4)[C@H](O)C3)ncn2)CC1` [Example 153], the pIC50 was 8.16.

Turning to `O=C(c1cccc(F)c1)N1CCC(Nc2cc(C(=O)N3CC[C@@H](N4CCc5ccccc5C4)[C@H](O)C3)ncn2)CC1` [Example 172], the pIC50 was 7.69.

As to `O=C(c1ccccn1)N1CCC(Nc2cc(C(=O)N3CC[C@@H](N4CCc5ccccc5C4)[C@H](O)C3)ncn2)CC1` [Example 173], the pIC50 was 7.29.

As to `Cn1cc(C(=O)N2CCC(Nc3cc(C(=O)N4CC[C@@H](N5CCc6ccccc6C5)[C@H](O)C4)nc(OC4CCCC4)n3)CC2)cn1` [Example 193], the pIC50 was 8.19.

With `O=C(c1cc(NC2CCN(C(=O)c3cccs3)CC2)nc(OC2CCCC2)n1)N1CC[C@@H](N2CCc3ccccc3C2)[C@H](O)C1` [Example 194], the negative logarithm of the IC50 (pIC50) is 8.35.

As for `CCC(CC)Oc1nc(NC2CCN(C(=O)c3ccccc3)CC2)cc(C(=O)N2CC[C@@H](N3CCc4ccccc4C3)[C@H](O)C2)n1` [Example 202], the negative logarithm of the IC50 (pIC50) was 8.28.

For the molecule `CC(C)Oc1nc(NC2CCN(C(=O)c3cccs3)CC2)cc(C(=O)N2CC[C@@H](N3CCc4ccccc4C3)[C@H](O)C2)n1` [Example 207], the pIC50 is 8.41.

In the case of `CC(C)COc1nc(NC2CCN(C(=O)c3cnn(C)c3)CC2)cc(C(=O)N2CC[C@@H](N3CCc4ccccc4C3)[C@H](O)C2)n1` [Example 213], the negative logarithm of the IC50 (pIC50) was 8.35.

Consider `Cc1ccc(C(=O)N2CCC(Nc3cc(C(=O)N4CC[C@@H](N5CCc6ccccc6C5)[C@H](O)C4)nc(N4CCCC4)n3)CC2)cc1` [Example 315], for which the negative-log IC50 (pIC50) is 8.33.

`COc1nc(NC2CCN(C(=O)c3ccc(C)cc3)CC2)cc(C(=O)N2CC[C@@H](N3CCc4ccccc4C3)[C@H](O)C2)n1` [Example 392, ((3R,4R)-4-(3,4-dihydroisoquinoline-2(1H)-yl)-3-hydroxypiperidine-1-yl)(2-methoxy-6-((1-(4-methylbenzoyl)piperidine-4-yl)amino)pyrimidine-4-yl)methanone hydrochloride]: the pIC50 was 8.55.

In the case of `[2H]C1([2H])CN([C@@H]2CCN(C(=O)c3cc(NC4CCN(C(=O)c5ccccc5)CC4)nc(OC(C)C)n3)C[C@H]2O)Cc2ccccc21` [Example 401, (6-((1-(benzoyl)piperidine-4-yl)amino)-2-isopropoxypyrimidine-4-yl)((3R,4R)-4-(3,4-dihydroisoquinoline-2(1H)-yl-4,4-d2)-3-hydroxypiperidine-1-1)methanone], the pIC50 is 8.10.

In a further data set the test system is human B-cell non-Hodgkin lymphoma Z-138 cells. Kind of data set: Growth inhibitory activity on Z-138 cells (CellTiter-Glo, 5 days). The conditions noted are these: 5 days (120H), read-out: measured cell growth inhibitory IC50 value (Z-138 cell growth). The format is cell-based. Here is the method:
Vi-Cell XR cell counter, Beckmancoulter.
Cells were revived and cultured in an incubator at 37° C./5% CO2 according to the above-mentioned culturing conditions.
Periodical passaging was performed, and cell lines with good growth status in about two generations were taken for plating.
I. Cells were taken from the incubator. The cell suspension was transferred to a 50 mL centrifuge tube, and centrifuged at
800-1000 rpm for 3-5 minutes. The supernatant was discarded. An appropriate volume of culture medium was added to the centrifuge tube and gently beated to resuspend the cells evenly. Cells were counted using a Vi-Cell XR cell counter.
II. According to the measured cell density, the cell suspension was adjusted to an appropriate concentration.
III. The cell suspension was added into the 384-well plate, 40 μL/well, containing 700 cells/well, and an equal volume of culture medium without cells was added to the blank control well.
I. A compound was dissolved in 100% DMSO to formulate a 10 mM stock solution.
II. The stock solution with a concentration of 10 mM was taken, diluted with DMSO to a 2 mM solution, which was used as the starting concentration to perform a 4× gradient dilution with DMSO for 9 points.
III. 200 nL of the above compound solutions in gradient concentrations were taken and added to each well respectively.
To the blank control well and the DMSO control well were respectively added 200 nL DMSO solutions, and the final concentration of DMSO was 0.5%.
IV. The cell plate was incubated in a carbon dioxide incubator for 5 days (120H).
I. CellTiter-Glo buffer was thawed and allowed to come to room temperature.
II. A lyophilized CellTiter-Glo substrate was allowed to come to room temperature.
III. CellTiter-Glo buffer was added to a bottle of CellTiter-Glo substrate to dissolve the substrate to formulate a CellTiter-Glo working solution.
IV. The working solution was slowly vortexed to fully dissolve the contents.
V. The cell culture plate was taken and allowed to equilibrate to room temperature.
VI. […] of a mixed CellTiter Glo reagent was added to each well, oscillated for 10 minutes in the dark, and incubated for 10 minutes.
The inhibition rates (IRs) of the detected compounds were calculated according to the following formula:
IR (%)=(1−(RLUcompound−RLUblank control)/(RLUDMSO−RLUblank control)*100%,
XLFit was used to plot the efficacy inhibition rate curve, and the IC50 value was calculated using the following 4-parameter model: [fit=(A±((B−A)/(1+((C/x)^D))))].
In general terms: In ATP-based viability assays light output follows the ATP content of the culture.
Take `COCCCCNc1cc(C(=O)N2CC[C@@H](N3CCc4ccccc4C3)[C@H](O)C2)nc(-c2ccccc2)n1` (stereo in doubt) [Example 45]: the negative-log IC50 (pIC50) is 5.88.

Take `CC(=O)N1CC(Nc2cc(C(=O)N3CC[C@@H](N4CCc5ccccc5C4)[C@H](O)C3)nc(-c3ccccc3)n2)C1` [Example 39]: the pIC50 is 6.87.

`CC(=O)N1CCC(Nc2cc(C(=O)N3CC[C@@H](N4CCc5ccccc5C4)[C@H](O)C3)nc(-c3cc4ccccc4s3)n2)CC1` [Example 66]: the negative logarithm of the IC50 (pIC50) was 5.87.

Turning to `O=C(c1ccc(C(F)(F)F)cc1)N1CCC(Nc2cc(C(=O)N3CC[C@@H](N4CCc5ccccc5C4)[C@H](O)C3)ncn2)CC1` [Example 153], the negative logarithm of the IC50 (pIC50) is 7.86.

In the case of `O=C(c1ccccc1)N1CCC(Nc2cc(C(=O)N3CC[C@@H](N4CCc5ccccc5C4)[C@H](O)C3)ncn2)CC1` [Example 158], the pIC50 is 7.72.

`O=C(c1ccncc1)N1CCC(Nc2cc(C(=O)N3CC[C@@H](N4CCc5ccccc5C4)[C@H](O)C3)ncn2)CC1` [Example 165]: the negative-log IC50 (pIC50) was 7.47.

With `O=C(c1ccncn1)N1CCC(Nc2cc(C(=O)N3CC[C@@H](N4CCc5ccccc5C4)[C@H](O)C3)ncn2)CC1` [Example 170], the pIC50 was 7.20.

Take `Cc1ccc(C(=O)N2CCC(Nc3cc(C(=O)N4CC[C@@H](N5CCc6ccccc6C5)[C@H](O)C4)ncn3)CC2)cc1` [Example 171]: the negative-log IC50 (pIC50) is 7.94.

In the case of `O=C(c1cc(NC2CCN(C(=O)c3cccs3)CC2)nc(OC2CCCC2)n1)N1CC[C@@H](N2CCc3ccccc3C2)[C@H](O)C1` [Example 194], the negative logarithm of the IC50 (pIC50) was 7.96.

Consider `CCC(CC)Oc1nc(NC2CCN(C(=O)c3ccccc3)CC2)cc(C(=O)N2CC[C@@H](N3CCc4ccccc4C3)[C@H](O)C2)n1` [Example 202], for which the pIC50 is 8.10.

Turning to `CC(C)Oc1nc(NC2CCN(C(=O)c3cccs3)CC2)cc(C(=O)N2CC[C@@H](N3CCc4ccccc4C3)[C@H](O)C2)n1` [Example 207], the pIC50 was 7.92.

On to `CC(C)COc1nc(NC2CCN(C(=O)c3ccn(C)n3)CC2)cc(C(=O)N2CC[C@@H](N3CCc4ccccc4C3)[C@H](O)C2)n1` [Example 212], for which the negative logarithm of the IC50 (pIC50) is 7.65.

On to `Cn1cc(N2CCC(Nc3cc(C(=O)N4CC[C@@H](N5CCc6ccccc6C5)[C@H](O)C4)nc(OC4CCCC4)n3)CC2)cn1` [Example 215], for which the pIC50 was 6.80.

For the molecule `CC(C)Oc1nc(NC2CCN(C(=O)c3ccn(C)n3)CC2)cc(C(=O)N2CC[C@@H](N3CCc4ccccc4C3)[C@H](O)C2)n1` [Example 217], the pIC50 is 7.22.

As for `CCC(CC)Oc1nc(NC2CCN(C(=O)c3cnn(C)c3)CC2)cc(C(=O)N2CC[C@@H](N3CCc4ccccc4C3)[C@H](O)C2)n1` [Example 243], the pIC50 was 8.24.

As for `Cn1cc(C(=O)N2CCC(Nc3cc(C(=O)N4CC[C@@H](N5CCc6ccccc6C5)[C@H](O)C4)nc(SC4CCCC4)n3)CC2)cn1` [Example 253], the negative-log IC50 (pIC50) is 8.13.

`CN(C)CCCOc1nc(NC2COC2)cc(C(=O)N2CC[C@@H](N3CCc4ccccc4C3)[C@H](O)C2)n1` [Example 259]: the pIC50 is 5.92.

Regarding `CC(=O)N1CCC(Nc2cc(OC3CCCC3)nc(C(=O)N3CC[C@@H](N4CCc5ccccc5C4)[C@H](O)C3)c2)CC1` [Example 276], the pIC50 is 6.95.

Turning to `CC(=O)N1CCC(Nc2cc(C(=O)N3CC[C@@H](N4CCc5ccccc5C4)[C@H](O)C3)nc(Nc3ccccc3)n2)CC1` [Example 339], the pIC50 was 7.19.

Consider `COc1nc(NC2CCN(C(=O)c3ccc(C)cc3)CC2)cc(C(=O)N2CC[C@@H](N3CCc4ccccc4C3)[C@H](O)C2)n1` [Example 392, ((3R,4R)-4-(3,4-dihydroisoquinoline-2(1H)-yl)-3-hydroxypiperidine-1-yl)(2-methoxy-6-((1-(4-methylbenzoyl)piperidine-4-yl)amino)pyrimidine-4-yl)methanone hydrochloride], for which the pIC50 was 7.91.

On to `[2H]C1([2H])CN([C@@H]2CCN(C(=O)c3cc(NC4CCN(C(=O)c5ccccc5)CC4)nc(OC(C)C)n3)C[C@H]2O)Cc2ccccc21` [Example 401, (6-((1-(benzoyl)piperidine-4-yl)amino)-2-isopropoxypyrimidine-4-yl)((3R,4R)-4-(3,4-dihydroisoquinoline-2(1H)-yl-4,4-d2)-3-hydroxypiperidine-1-1)methanone], for which the negative logarithm of the IC50 (pIC50) is 7.80.

The test system of another data set is Xenograft models of small cell lung cancer (SCLC), non-small cell lung cancer (NSCLC), acute myeloid leukemia (AML) and non-Hodgkin's lymphoma.
Assay: not given
Conditions: cited from earlier work.
`Nc1nc2cc(CC[C@H]3C[C@@H](n4ccc5c(N)ncnc54)[C@H](O)[C@@H]3O)ccc2cc1Br` [JNJ-64619178]: the tumor growth inhibition entry was “up to 99%”.

Tested on in a further data set: not given
Assay: not given
Conditions: Phase I, adult patients with solid tumors; cited from earlier work.
`CC(=O)N1CCC(Nc2cc(C(=O)NC[C@H](O)CN3CCc4ccccc4C3)ncn2)CC1` [GSK3326595]: the PK in plasma result was “dose-dependent”.
